Experimental data as given in patent publication US20240058387A1, “CULTURE MEDIUM COMPOSITION FOR AMPLIFYING AND MAINTAINING SELF-RENEWAL CAPACITY AND DIFFERENTIATION POTENTIAL OF HSCS AND APPLICATION THEREOF” (EDIGENE (GUANGZHOU) INC., priority 2020, published 2024).

Tested on: mobilized peripheral blood-derived CD34+ cells
Test: Cell counting: absolute number of marker-positive cells, comparison with UM171 and SR1
Format: cell-based, human
Conditions: FIG. 5B; 8 days; AG1296 at 1 μM; UM171 concentration not given
Method: According to the solubility and required solvent indicated in the instructions of the small molecule inhibitor (see Table 1 for the Cat. number of the small molecule inhibitor), the preparation of the small molecule inhibitor stock solution was carried out. Next, the hematopoietic stem cell medium was prepared: SFEM II medium (stem cell, Cat. number: 09655)+50 ng/ml growth factor Flt-3L (PeProtech, Cat. number: 300-100UG)+50 ng/ml growth factor SCF (PeProtech, Cat. number): 300-07-100UG)+50 ng/ml growth factor TPO (PeProtech, Cat. number: 300-18-100UG)+10 ng/ml interleukin IL-6 (PeProtech, Cat. number: 200-06-20UG)+1% bispecific antibody (HyClone, Cat. No.: sv30010). According to the set concentration gradient of the small molecule inhibitor, the stock solution and the basal medium were used to prepare the medium containing different concentrations of the small molecule inhibitor.
First, the prepared medium was added to a 24-well plate (Corning, Cat. number: 3473), 950 μl per well, and placing it in a carbon dioxide incubator (Thermo, model: 3111) to preheat; resuspending the spare umbilical cord Blood-derived HSCs of Example 1 with SFEM 11+50 ng/ml Flt-3L+50 ng/ml SCF+50 ng/ml TPO+10 ng/ml IL-6+1% bispecific antibody, calculating the medium volume to be added according to 50 μl cell suspension per well and 2*10^5/m1 cell density per well. For example, when the final volume of the cell culture solution per well was 1 ml, the total number of cells per well was 2*10^5 cells calculated according to the cell density per well, and the density of the […] of cell suspension supplemented to each well is 4*10^6/ml. The density of the spare HSCs of Example 1 was adjusted to the calculated density of the cell suspension, and adding it; taking out the preheated medium from the incubator, adding 50 μl of the cell suspension to each well, and after mixing, using the microscope (OLYMPUS, model: CKX53) to observe the cells state, and then putting it into an incubator for culturing.
On the mobilized peripheral blood-derived CD34+ cells sorted in Example 1, the screened-out inhibitor AG1296 and literature-reported (Fares I, et al. Science. 2014; Boitano A E, et al. Science. 2010) inhibitors UM171 and SR1 were compared in the same way as Example 2. Eight days after the induction of the small molecule inhibitor, the expression of LT-HSCs cell surface markers (CD34+CD45+CD90+CD45RA−CD38−) was detected by flow cytometry using the same method as in Example 3. After 8 days of culture, 20 μL of cell suspension was taken into a cell counter (Nexcelom, model: Cellometer K2) and counted, and the absolute numbers of the final CD34+ cells and LT-HSCs on […] were calculated (absolute number of cells=total number of cells*stemness ratio).

Cn1nnc(-c2ccc3c(c2)[nH]c2nc(Cc4ccccc4)nc(NC4CCC(N)CC4)c23)n1 (stereo not shown) [UM171]
absolute number of CD34+ cells: best effect
